Test systems include HT-29; NCI-H226; COLO 205; SW-620; A549; HL-60; NCI-H460; U-251; OVCAR-4; OVCAR-3; MCF7; A498; SK-MEL-5; CAKI-1; CCRF-CEM; RPMI-8226; HCC 2998; UACC-257; HOP-92.
Holding throughout (test): NCI anticancer screen, dose series, 48 h

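Growth conditions: 96-well plates. Treatment: test compound, 48 hours, 5 concentrations. Analysis: linear interpolation between bracketing concentrations; unreached endpoints set to highest concentration. GI50 marks 50% less growth.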 The source made the active and inactive calls. No stated cut-off is given here; in the data, active = GI50 up to about 1.1 µM and inactive = higher. Where only a bound is given, the exact number is not on record here.

This note sets out measurements from ChEMBL document CHEMBL1201862, “PubChem BioAssay data set” (2004).

Consider `CCCCCC(O)C(O)CCC[C@H](O)[C@H]1CC[C@H]([C@H]2CC[C@H]([C@H](O)CCCCCCCCCCCCC3=C[C@H](C)OC3=O)O2)O1` (some centres not stated), for which the GI50 was 2.63 µM (inactive) with HT-29; 2.49 µM (inactive) in the experiment on NCI-H226; 3.98 µM (inactive) with COLO 205; 3.44 µM (inactive) with SW-620; 2.21 µM (inactive) in the experiment with A549; 1.57 µM (inactive) in the experiment on HL-60. The GI50 in the experiment with NCI-H460 is 2.43 µM (inactive); with U-251 it was 3.73 µM (inactive); in the experiment with OVCAR-4 it was 5.11 µM (inactive); in the experiment with OVCAR-3, 2.47 µM (inactive); with MCF7, 1.9 µM (inactive); in the experiment with A498, 2.65 µM (inactive). Also, the GI50 in the experiment on SK-MEL-5 is 1.22 µM (inactive); in the experiment on CAKI-1 it was 5.07 µM (inactive); in the experiment with CCRF-CEM it was 1.09 µM (active); with RPMI-8226, 1.28 µM (inactive); in the experiment on HCC 2998 it was 11 µM (inactive); in the experiment on UACC-257, 0.597 µM (active). Further, in the experiment with HOP-92, the GI50 was 23.4 µM (inactive).
`O=[N+]([O-])c1ccc2nc3c(nc2c1)-c1c2ccccc2cc2cccc-3c12`: the GI50 was 5.31 µM (inactive) in the experiment with HT-29; 12.7 µM (inactive) in the experiment with NCI-H226; > 100 µM (inactive) in the experiment on COLO 205; 4.83 µM (inactive) with SW-620; 48.6 µM (inactive) in the experiment on A549; 20.5 µM (inactive) with HL-60. The GI50 in the experiment with NCI-H460 was 19.7 µM (inactive); with U-251, 5.9 µM (inactive); in the experiment on OVCAR-4, 24.3 µM (inactive); in the experiment with OVCAR-3 it was 12.3 µM (inactive); in the experiment on MCF7, 4.06 µM (inactive); in the experiment with A498, 0.427 µM (active). Besides, the GI50 is 31.8 µM (inactive) with SK-MEL-5; 9.77 µM (inactive) in the experiment on CAKI-1; 6.12 µM (inactive) with CCRF-CEM; 17.7 µM (inactive) in the experiment with RPMI-8226; 33.3 µM (inactive) with HCC 2998; 18.8 µM (inactive) with UACC-257. In the experiment with HOP-92, the GI50 is 14.9 µM (inactive).
With `CCC(C)NC(=S)N/N=C(\C)c1nc2cccnc2[nH]1` (configuration not stated), the GI50 in the experiment on HT-29 was 4.49 µM (inactive); with NCI-H226, 4.42 µM (inactive); in the experiment with COLO 205 it was 3.54 µM (inactive); in the experiment with SW-620 it was 4.52 µM (inactive); with A549 it was 14.9 µM (inactive); in the experiment on HL-60 it was 4.92 µM (inactive). The GI50 is 10 µM (inactive) in the experiment on NCI-H460; 9.14 µM (inactive) in the experiment on U-251; 4.91 µM (inactive) with OVCAR-4; 3.25 µM (inactive) in the experiment with OVCAR-3; 2.1 µM (inactive) in the experiment with MCF7; 57.3 µM (inactive) in the experiment with A498. Besides, the GI50 is 4.72 µM (inactive) in the experiment with SK-MEL-5; 4.07 µM (inactive) in the experiment with CAKI-1; 3.09 µM (inactive) in the experiment on CCRF-CEM; 21.6 µM (inactive) in the experiment with RPMI-8226; 13.4 µM (inactive) in the experiment on HCC 2998; 5.79 µM (inactive) in the experiment on UACC-257. Also, the GI50 in the experiment with HOP-92 was 7.18 µM (inactive).
`C=CCOc1ccc2c(C)cc(=O)oc2c1C`: the GI50 with HT-29 was 59.2 µM (inactive); in the experiment on NCI-H226 it was > 100 µM (inactive); with COLO 205, 44.3 µM (inactive); in the experiment with SW-620, 67 µM (inactive); with A549, 50.7 µM (inactive); with HL-60, 32.4 µM (inactive). Further, the GI50 with NCI-H460 is 53.8 µM (inactive); in the experiment on U-251, 54.2 µM (inactive); in the experiment on OVCAR-4 it was 96.4 µM (inactive); in the experiment on OVCAR-3, > 100 µM (inactive); in the experiment with MCF7, 38.5 µM (inactive); in the experiment on A498 it was 31.5 µM (inactive). The GI50 in the experiment on SK-MEL-5 is 32.4 µM (inactive); in the experiment on CAKI-1, 24.1 µM (inactive); in the experiment on CCRF-CEM, 45.4 µM (inactive); with RPMI-8226, 35.5 µM (inactive); in the experiment on HCC 2998, 33 µM (inactive); in the experiment with UACC-257, > 100 µM (inactive). For the same compound, in the experiment with HOP-92, the GI50 was 54.3 µM (inactive).
Consider `CC1=CC(=O)/C(=C/Nc2nc(-c3ccc([N+](=O)[O-])cc3)cs2)C(=O)O1`, for which the GI50 is > 100 µM (inactive) in the experiment on HT-29; > 100 µM (inactive) in the experiment with NCI-H226; > 100 µM (inactive) in the experiment with COLO 205; > 100 µM (inactive) with SW-620; > 100 µM (inactive) in the experiment on A549; 19.9 µM (inactive) in the experiment with HL-60. Moreover, the GI50 in the experiment with NCI-H460 was > 100 µM (inactive); with U-251 it was > 100 µM (inactive); in the experiment on OVCAR-4, > 100 µM (inactive); in the experiment on MCF7, > 100 µM (inactive); in the experiment with A498, 80 µM (inactive); in the experiment with SK-MEL-5, > 100 µM (inactive). For the same compound, the GI50 in the experiment with CAKI-1 is > 100 µM (inactive); in the experiment on CCRF-CEM it was 31.5 µM (inactive); with RPMI-8226, > 100 µM (inactive); in the experiment with HCC 2998 it was > 100 µM (inactive); in the experiment on UACC-257 it was > 100 µM (inactive); with HOP-92, > 100 µM (inactive).
As for `COc1ccc(C(=O)c2ccc(-n3cc(/C=C/[N+](=O)[O-])c4ccccc43)cc2)cc1`, the GI50 in the experiment on HT-29 is 23.9 µM (inactive); in the experiment on NCI-H226, > 51.5 µM (inactive); in the experiment on COLO 205, 32.3 µM (inactive); in the experiment with SW-620, 3.69 µM (inactive); with A549, 80.4 µM (inactive); with HL-60, 13.7 µM (inactive). Further, the GI50 in the experiment with NCI-H460 is 35.9 µM (inactive); in the experiment with U-251, 11.3 µM (inactive); in the experiment with OVCAR-4 it was 29.4 µM (inactive); in the experiment with OVCAR-3, 13.6 µM (inactive); with MCF7, 9.08 µM (inactive); in the experiment on A498, 22.4 µM (inactive). Moreover, the GI50 with SK-MEL-5 is 21.6 µM (inactive); in the experiment with CAKI-1 it was 19.1 µM (inactive); with CCRF-CEM, 2.58 µM (inactive); with RPMI-8226, 3.08 µM (inactive); with HCC 2998 it was 20.9 µM (inactive); in the experiment on UACC-257, 10.2 µM (inactive). For the same compound, the GI50 in the experiment on HOP-92 was 17.9 µM (inactive).
Consider `COc1cc(N(CCC#N)CCC#N)ccc1C(/N=N/c1cccc(C)c1)=N\NC(=O)c1ccc(C)cc1`, for which the GI50 was > 100 µM (inactive) in the experiment with HT-29; > 100 µM (inactive) in the experiment with NCI-H226; 60 µM (inactive) with COLO 205; > 100 µM (inactive) in the experiment on SW-620; > 100 µM (inactive) in the experiment with A549; 47.3 µM (inactive) in the experiment with HL-60. Also, the GI50 in the experiment on NCI-H460 was 25.9 µM (inactive); in the experiment on U-251, 45.8 µM (inactive); in the experiment with OVCAR-4, > 100 µM (inactive); in the experiment with OVCAR-3, > 100 µM (inactive); in the experiment on MCF7, 29.1 µM (inactive); in the experiment with A498, 4.78 µM (inactive). Also, the GI50 is > 100 µM (inactive) with SK-MEL-5; > 100 µM (inactive) in the experiment on CAKI-1; 97.3 µM (inactive) in the experiment on CCRF-CEM; 35.7 µM (inactive) in the experiment with RPMI-8226; 79.3 µM (inactive) in the experiment on HCC 2998; > 100 µM (inactive) in the experiment with UACC-257. For the same compound, the GI50 in the experiment with HOP-92 is 65.9 µM (inactive).
Take `CN(C)C(=S)SCC(=O)Nc1ccccc1`: the GI50 with HT-29, in the experiment with NCI-H226, in the experiment on COLO 205, with SW-620, with A549 and in the experiment on HL-60 was > 100 µM (inactive) throughout. Moreover, the GI50 in the experiment with NCI-H460, in the experiment on U-251, with OVCAR-4, in the experiment on OVCAR-3, in the experiment on MCF7 and in the experiment with A498 was > 100 µM (inactive) each time. Moreover, the GI50 in the experiment with SK-MEL-5 was > 100 µM (inactive); with CAKI-1, > 100 µM (inactive); in the experiment on CCRF-CEM, > 100 µM (inactive); with RPMI-8226, 94.2 µM (inactive); with HCC 2998, > 100 µM (inactive); with UACC-257 it was > 100 µM (inactive). Moreover, the GI50 in the experiment on HOP-92 was > 100 µM (inactive).
`O=c1[nH]nc(-c2ccccc2)c2[nH]c3c(c12)Cc1ccccc1-3`: the GI50 in the experiment on HT-29 is 1.4 µM (inactive); with NCI-H226, 3.9 µM (inactive); with COLO 205, 1.61 µM (inactive); in the experiment with SW-620 it was 2.06 µM (inactive); with A549, 21.2 µM (inactive); in the experiment with HL-60, 0.665 µM (active). The GI50 is 2.11 µM (inactive) in the experiment with NCI-H460; 3.64 µM (inactive) in the experiment with U-251; 3.79 µM (inactive) in the experiment with OVCAR-4; 0.914 µM (active) in the experiment on OVCAR-3; 0.158 µM (active) with MCF7; 2.35 µM (inactive) in the experiment with A498. The GI50 was 0.115 µM (active) in the experiment with SK-MEL-5; 13.8 µM (inactive) in the experiment on CAKI-1; 3.92 µM (inactive) in the experiment on CCRF-CEM; 2.37 µM (inactive) in the experiment with RPMI-8226; 6.82 µM (inactive) in the experiment with HCC 2998; 1.67 µM (inactive) with HOP-92.
For the compound `Cc1ccc(Cc2n[nH]c(=O)n2/N=C\CC/C=N\n2c(Cc3ccc(C)cc3)n[nH]c2=O)cc1`, the GI50 was 28.8 µM (inactive) in the experiment with HT-29; 24.4 µM (inactive) with NCI-H226; > 100 µM (inactive) in the experiment on COLO 205; 43 µM (inactive) in the experiment on SW-620; > 100 µM (inactive) in the experiment with A549; 14.6 µM (inactive) with HL-60. In addition, the GI50 with U-251 was 19.2 µM (inactive); in the experiment with OVCAR-4, > 100 µM (inactive); in the experiment with OVCAR-3, > 100 µM (inactive); in the experiment on MCF7, 23.9 µM (inactive); in the experiment with A498 it was 90.4 µM (inactive); with SK-MEL-5, 42.2 µM (inactive). Moreover, the GI50 is > 100 µM (inactive) in the experiment on CAKI-1; 4.1 µM (inactive) in the experiment with CCRF-CEM; 57.9 µM (inactive) with RPMI-8226; > 100 µM (inactive) in the experiment with HCC 2998; 57.4 µM (inactive) in the experiment on UACC-257; 25.1 µM (inactive) in the experiment with HOP-92.
